# “Also recorded” adds a separate entry of the source.
# Key:
# Id3 [1] = experiment: Id3 expression in HUVECs, Western blot; type: cell-based, Human; settings: proliferating HUVECs; 24 hours (FIG. 10A)
# Description: (§1) Human umbilical vein endothelial cells (HUVECs) and lymphatic endothelial cells (LECs) were cultivated in EBM™-2 Endothelial Cell Growth Basal Medium supplemented with EGM™-2 MV Microvascular Endothelial Cell Growth Medium-2 SingleQuots™ Kit (both Lonza, catalogue numbers CC-3156 and CC4176, respectively), hereafter referred to as endothelial cell growth medium. HUVECs and LECs were cultivated in the presence of the indicated concentrations of X6632, or with DMSO as a solvent control. After 24 hours, cells were harvested. Lysates were western blotted and probed with antibodies against Id1 and Id3. Western blots probed with vinculin antibodies served as loading controls.
# (§2) Western blot analysis was performed using standard methods. The following antibodies were used for protein detection: Id1 (195-14, CalBioreagents), Id3 (17-3, CalBioreagents), β-actin (AC-15, Sigma Aldrich), Vinculin (VIN-11-5, Sigma Aldrich). Protein bands were detected using HRP conjugated secondary antibodies (P0447, P0448, Agilent Technologies) and enhanced chemiluminescence (32106, Thermo Fisher Scientific).
# (§3) The effect of X6632 on Id1 and Id3 expression in cultivated proliferating human umbilical vein endothelial cells (HUVECs) was investigated. […] LDN-193189, an antagonist of BMP receptor isotypes ALK2 and ALK3, served as a positive control reference for inhibition of Id1 and Id3 expression.
# Id1 [2] = experiment: Id1 expression in HUVECs, Western blot; type: cell-based, Human; settings: proliferating HUVECs; 24 hours (FIG. 10A)
# Description: as §1, §2, §3
# B16-F10 and Ret cells [3] = experiment: Proliferation of melanoma cells in 2D culture; type: cell-based, murine
# B16-F10 and Ret cells [4] = experiment: 3D Matrigel assay; type: cell-based, murine
# Description: X8166 inhibits melanoma cell growth in 3D Matrigel. B16-F10 (A) or Ret (B) control or CRISPR/Cas9 Id1/Id3 cells were seeded in 3D Matrigel (10 mg/ml) and grown for six days before analysis. B16-F10 or Ret cells were treated daily with DMSO or X8166 (7.5 μM). The number of colonies at six positions of each well of a 48-well plate were counted in each z-level (5-10 z-levels were imaged per position).
# Cells (2×10^3) were mixed with Matrigel to obtain 150 μl of a cell/Matrigel (10 mg/ml, #354262, Corning Inc.) solution, which was seeded into a well of a 48-well plate. The gel was allowed to solidify at 37° C. for 30 min and was subsequently overlaid with 500 μl complete growth medium. After six days of culture, images were captured using a Leica DMI6000 B microscope at six different x/y positions in every well, and a minimum of five horizontal layers (z levels) at each position, in order to get every cell in focus for image analysis. Image analysis was performed using Fiji software as follows: First, images were transformed into 8-bit files (pixel values from 0 (black) to 255 (white)). The scale was set to distance=0, known=0, pixel=1, and unit=pixel global. Outlines of each colony in focus in every image were detected using the integrated semi-automatic magic wand tool. Once outlines were matching the morphology of the colony were obtained, the colony was filled white (pixel value 255) using the fill function. Thresholding of pixel values (threshold=255) allowed black (background) and white (colonies) images of the filled colonies to be obtained. The “Analyze particles” function was applied to measure the area and perimeter of colonies with a minimum pixel size of 1500. An invasive index was calculated as follows: Invasive index=(perimeter)^2/area, resulting in a unitless measure of invasiveness.
# Id3 [5] = experiment: Compound screen: BMP4-induced Id3 expression, Western blot; type: cell-based, murine; settings: for Inhibitory effect on Id3 protein expression: B16-F10 and Ret cells, BMP4 10 ng/ml and compound simultaneously, 24 h, rated relative to CBD
# Description: (§4) To screen compounds with an inhibitory effect on Id1 and Id3 expression, cells were simultaneously stimulated with BMP4 (10 ng/ml, 315-27, Peprotech) and substances at the indicated concentrations for 24 h. DMSO served as a solvent control. Effects on Id1 and Id3 expression levels were analysed by Western blotting.
# as §2
# (§5) B16-F10 and Ret melanoma cells were treated with BMP4 to induce Id1 and Id3 expression, and simultaneously treated with each of the compounds individually for a 24 h period.
# B16-F10 melanoma cells = experiment: Tumor growth and initiation in vivo, B16-F10; design: species or system mice; settings: for Number of animals with tumors: B16-F10 cells, 8 mice per group, assessed over 90 days
# Excerpt: (§6) B16-F10 (A) or Ret (B) cells were co-injected with Matrigel into syngeneic mice. […] Numbers indicate the number of animals with a tumor in each group. Bar graphs show the mean tumor volume in each group at the day when the first animal had reached the legal tumor size limit. Kaplan-Meier curves show the percentage of tumor-free animals in percent as a measure for tumor initiation.
# (§7) Cells were harvested using trypsin/EDTA and washed in PBS. The indicated numbers of living melanoma cells were subcutaneously injected into the flank of syngeneic mice in 100 μl PBS. For co-injection experiments, the indicated number of living cells was resuspended in 100 μl Matrigel HC (10 mg/ml, #354262, Corning Inc.), and subcutaneously injected into the flank. Tumor volume was calculated using the formula 4/3π (d1/2×d2/2×d3/2), where d1−d3 represents the diameter of the tumor in three dimensions. […] All animal experiments were approved by the local authorities, and performed according to the German legal requirements. Tumor initiating cell (TIC) frequency and p-values were calculated using ELDA software.
# (§8) To investigate the anti-tumor properties of the selected Id1/Id3-inhibiting compounds, groups of experimental mice (8 per group) were injected subcutaneously with B16-F10 or Ret melanoma cells. […] Melanoma initiation and growth was assessed over a period of 90 days.
# mammary carcinoma = settings: orthotropic mammary carcinoma model; cited from earlier work
# [6] = test system: mouse embryonic fibroblasts (MEFs); experiment: Proliferation/cytotoxicity in mouse embryonic fibroblasts, 2D culture; type: cell-based
# CB2 = CB2 (Homo sapiens, UniProt P34972); settings: cited from earlier work
# CB2, sequence (P34972 whole entry, species assumed): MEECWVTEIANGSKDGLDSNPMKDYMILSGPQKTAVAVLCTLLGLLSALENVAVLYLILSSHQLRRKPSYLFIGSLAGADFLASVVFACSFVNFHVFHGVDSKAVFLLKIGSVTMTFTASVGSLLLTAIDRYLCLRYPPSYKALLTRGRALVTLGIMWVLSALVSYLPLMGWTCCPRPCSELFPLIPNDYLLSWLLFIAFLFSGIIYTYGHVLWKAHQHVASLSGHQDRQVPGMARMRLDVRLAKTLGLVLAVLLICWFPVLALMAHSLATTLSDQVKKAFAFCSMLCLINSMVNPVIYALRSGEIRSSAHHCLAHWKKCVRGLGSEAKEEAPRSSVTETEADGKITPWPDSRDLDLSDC
# glioma = glioma model; cited from earlier work
# Id1 [7] = settings: cited from earlier work
# [8] = Toxicity observed in treated tumor-bearing mice; type: in vivo; settings: daily intraperitoneal injections; for Toxicity in the treated mice: 14 days
# Description: as §7
# In contrast, daily intraperitoneal injections of CBD led to the death of two mice in the experiment with Ret cell-derived tumors (cause of death unknown).
# Id1 [9] = experiment: Compound screen: BMP4-induced Id1 expression, Western blot; type: cell-based, murine; settings: for Inhibitory effect on Id1 protein expression: B16-F10 and Ret cells, BMP4 10 ng/ml and compound simultaneously, 24 h, rated relative to CBD
# Description: as §4, §2, §5
# Ret melanoma cells = experiment: Tumor growth and initiation in vivo, Ret; design: species or system mice
# Excerpt: as §6, §7, §8
# [10] = compound 3.3 μM, BMP4, 24 h (FIG. 9B)
smiles,measurement,setting,value
"Cc1cc(=O)oc2cc(O)ccc12 [4-methylumbelliferone, reference compound]",Id3 protein expression,Id3 [1],did not reduce
same,Id1 protein expression,Id1 [2],did not reduce
"C=C(C)[C@@H]1CCC(C)=C[C@H]1c1c(O)cc(CCCCC)cc1O [CBD, Cannabidiol, reference compound]","Proliferation / cytotoxicity, melanoma cells",B16-F10 and Ret cells [3],strongly inhibited; also recorded: more cytotoxic
same,"3D assays could not be performed with daily application, reason",B16-F10 and Ret cells [4]; daily application in 3D Matrigel,cytotoxicity
same,Inhibition of Id3 expression,Id3 [5]; [10],does not inhibit
same,Number of animals with tumors,B16-F10 melanoma cells,seven out of eight
same,Levels of Id1 in tumor tissue,mammary carcinoma,reduced levels
same,Primary tumor growth and lung metastasis,mammary carcinoma,inhibition
same,"Proliferation / cytotoxicity, non-transformed MEFs",[6],strongly inhibited; also recorded: more toxic
same,Affinity for CB2,CB2,low affinity
same,Id1 expression,glioma,inhibited
same,Invasion in vivo,glioma,decreased invasion
same,Survival of tumor-bearing mice,glioma,prolonged survival
same,Id1 expression at the transcriptional level,Id1 [7],inhibits
same,Toxicity in the treated mice,[8],toxicity-related injury to their intestinal organs
same,Death of mice,"[8]; experiment with Ret cell-derived tumors, cause of death unknown",two
same,Inhibition of Id1 expression,Id1 [9]; [10],does not inhibit
CCCCCCCC(C)(C)c1cc(O)c2cc(Cc3ccccc3O)c(=O)oc2c1 [X81],Inhibitory effect on Id3 protein expression,Id3 [5],strongest inhibitory activities
same,Inhibitory effect on Id1 protein expression,Id1 [9],strongest inhibitory activities
CCCCCCC(C)(C)c1cc(O)c2cc(Cc3ccccc3O)c(=O)oc2c1 [X106],Inhibitory effect on Id3 protein expression,Id3 [5],strongest inhibitory activities
same,Inhibitory effect on Id1 protein expression,Id1 [9],strongest inhibitory activities
O=C(Nc1nn(Cc2ccc(C(F)(F)F)cc2)c2c(C(F)(F)F)cccc12)c1ccccc1 [X8035],Inhibitory effect on Id3 protein expression,Id3 [5],strongest inhibitory activities
same,Inhibitory effect on Id1 protein expression,Id1 [9],strongest inhibitory activities
CCCCn1cc(C(=O)Cc2ccccc2)c2ccccc21 [X8166],"Proliferation / cytotoxicity, melanoma cells",B16-F10 and Ret cells [3],modest inhibitory effect; also recorded: less cytotoxic
same,Growth of melanoma cells in 3D Matrigel,"B16-F10 and Ret cells [4]; Matrigel 10 mg/ml, six days, treated daily, X8166 7.5 μM",significantly impaired; also recorded: inhibits
same,Inhibitory effect on Id3 protein expression,Id3 [5],strongest inhibitory activities
same,Melanoma growth and initiation,"B16-F10 melanoma cells; B16-F10 cells co-injected with Matrigel, syngeneic mice, daily i.p. first 14 days, compared to DMSO",significantly inhibit; also recorded: potent inhibitors
same,Number of animals with tumors,B16-F10 melanoma cells,none
same,Tumor growth and initiation compared to CBD,"B16-F10 melanoma cells; B16-F10 experiment, daily i.p. first 14 days",significantly more
same,"Proliferation / cytotoxicity, non-transformed MEFs",[6],modest inhibitory effect; also recorded: well tolerated; also recorded: superior; also recorded: less cytotoxic
same,Toxicity in the treated mice,[8],no evidence for toxicity was observed; also recorded: well tolerated
same,Inhibitory effect on Id1 protein expression,Id1 [9],strongest inhibitory activities
same,Melanoma growth and initiation,"Ret melanoma cells; Ret cells co-injected with Matrigel, syngeneic mice, daily i.p. first 14 days, compared to DMSO",significantly inhibit; also recorded: potent inhibitors
same,Number of mice that did not develop any tumors,"Ret melanoma cells; Ret cells, 8 mice per group, assessed over 90 days",2 mice
same,Tumor growth and initiation compared to CBD,"Ret melanoma cells; Ret experiment, daily i.p. first 14 days",significantly more
Cc1ccc(Cn2cc(CC(=O)Nc3ccc(C(F)(F)F)cc3)c3ccccc32)cc1 [X8706],Inhibitory effect on Id3 protein expression,Id3 [5],strongest inhibitory activities
same,Inhibitory effect on Id1 protein expression,Id1 [9],strongest inhibitory activities
Cc1ccc(CN(C(=O)c2ccccc2)c2nn(Cc3ccc(C)cc3)c3c(C(F)(F)F)cccc23)cc1 [X8766],Inhibitory effect on Id3 protein expression,Id3 [5],strongest inhibitory activities
same,Inhibitory effect on Id1 protein expression,Id1 [9],strongest inhibitory activities
